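How tested: cells in 96-well plates exposed to compound for 48 hours at five concentrations. GI50 = concentration required for 50% inhibition of growth. At the TGI there is no net growth.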

This is an account of results in PubChem BioAssay (NCI).

Common to all, as to assay: NCI-60 cell line screen, 48 h
For assay [1], the system named is SF-268 CNS.
For assay [2], the system named is IGROV1 ovarian.
Assay [3] has as its system MOLT-4 leukemia.
The subject of assay [4] is SW-620 colon.
Assay [5] concerns RXF 393 renal.
Assay [6] relates to LOX IMVI melanoma.
In assay [7] the test system is MALME-3M melanoma.
Assay [8] deals with UO-31 renal.
In assay [9] the test system is NCI-H23 lung.
For assay [10], the system named is RPMI-8226 leukemia.

In the case of `C#CCN(CCCOc1ccc(Cl)cc1Cl)CCCSC(=O)CCCCCN1/C(=C\C=C2/CCCC(/C=C/C3=[N+](CCCCCC(=O)[O-])c4ccccc4C3(C)C)=C2Cl)C(C)(C)c2ccccc21`, the GI50 in assay [1] is 1.84 µM; in assay [2], 1.42 µM; in assay [3], 1.48 µM; in assay [4] it was 1.65 µM; in assay [5], 1.66 µM; in assay [6], 1.46 µM. In addition, the figures for the GI50 in assay [7], in assay [8] and in assay [9] were 1.21 µM, 10.6 µM and 1.94 µM, respectively. Also, the TGI is 6.74 µM in assay [1]; 3.34 µM in [2]; greater than 100 µM in assay [3]; 5.44 µM in assay [4]; 3.37 µM in [5]; 2.83 µM in assay [6]. For the same molecule, the TGI was found to be 2.85 µM in assay [7], 26.2 µM in assay [8] and 5.09 µM in [9].

For `CC[C@]1(O)C[C@@H]2CN(CCc3c([nH]c4ccccc34)[C@@](C(=O)OC)(c3cc4c(cc3OC)N(C)[C@H]3[C@@](O)(C(=O)OC)[C@H](OC(=O)CCCBr)[C@]5(CC)C=CCN6CC[C@]43[C@@H]65)C2)C1`, the GI50 was 0.197 µM in [1]; less than 0.01 µM in [10]; 0.0263 µM in [2]; 0.026 µM in [3]; less than 0.0146 µM in assay [4]; less than 0.01 µM in assay [5]. Moreover, the GI50 in assay [8] was 0.196 µM; in [9], less than 0.0204 µM. In addition, the TGI is 17.5 µM in [1]; 0.492 µM in assay [10]; greater than 100 µM in assay [2]; greater than 100 µM in assay [3]; greater than 100 µM in assay [4]; less than 0.01 µM in assay [5]. Moreover, the TGI is 6.55 µM in [8] and greater than 100 µM in [9].

On to `Clc1ccc(/C=C/c2csnn2)cc1`, for which the TGI in assay [1], in assay [2], in [3], in assay [4], in assay [5] and in assay [6] was greater than 100 µM throughout. The TGI in assay [7], in assay [8] and in [9] was greater than 100 µM each time.

On to `Cc1cc(N(CCC#N)CCC#N)ccc1/C=C1N=C(/C=C\c2ccccc2)N(c2ccc(C(=O)O)cc2)C\1=O`, for which the TGI in assay [1], in assay [10], in assay [2], in assay [3], in assay [4] and in assay [6] was greater than 100 µM each time. Further, the TGI in assay [7], in assay [8] and in assay [9] was greater than 100 µM in each case.

`O=C(N[C@H]1CC2(C=C(I)C(=O)C(I)=C2)OC1=O)OCc1ccccc1`: the TGI in assay [1] is 33.1 µM; in [10], greater than 100 µM; in assay [5], 28.8 µM; in assay [6] it was 30.6 µM; in assay [7], 31.9 µM; in [8], 32.1 µM. In assay [9], this molecule gave a TGI of 32.6 µM.

As for `COc1cc2c(cc1OC)C(Sc1ccc(Cl)cc1)c1c(nc(N)c(C#N)c1N)O2` (stereo not given), the GI50 in [1] is 1.65 µM; in assay [10] it was 1.42 µM; in assay [2], 1.07 µM; in assay [3] it was 0.917 µM; in [4], 1.37 µM; in assay [5], 1.39 µM. Moreover, the results for the GI50 in [6], in assay [7] and in assay [8] were 1.09 µM, 1.49 µM and 1.21 µM, respectively. Also, the TGI in assay [1] amounted to 3.17 µM; in assay [10], 4.8 µM; in assay [2] it was 2.88 µM; in assay [3] it was 4.89 µM; in [4], 3.14 µM; in assay [5] it was 2.77 µM. In addition, the TGI was 2.35 µM in [6], 3.1 µM in assay [7] and 2.46 µM in [8].

`CCOC(=O)c1cnc2c(ccc3ncccc32)c1OCC`: the TGI in assay [1], in assay [2], in assay [3], in [4], in assay [5] and in assay [6] was greater than 100 µM each time. Moreover, the TGI in [7], in [8] and in [9] was greater than 100 µM in each case.

In the case of `COc1cc2ccc(CC(=O)O)cc2cc1OC`, the TGI in assay [1], in [10], in assay [2], in assay [3], in assay [4] and in assay [5] was greater than 100 µM each time. The TGI in [7], in assay [8] and in [9] was greater than 100 µM throughout.

As for `c1ccc(-c2nc3ccccc3[nH]2)c(OCCCCCOc2ccccc2-c2nc3ccccc3[nH]2)c1`, the GI50 is 3.44 µM in [1]; 18.1 µM in [2]; 5.58 µM in assay [3]; 3.18 µM in assay [4]; 12.9 µM in assay [6]; 12.3 µM in assay [7]. For the same molecule, the values for the GI50 in assay [8] and in [9] were 11 µM and 13.1 µM, respectively. The TGI came to 23.2 µM in [1]; 47.1 µM in assay [2]; 47.5 µM in assay [3]; 12.9 µM in assay [4]; 29.8 µM in [6]; 44 µM in [7]. Further, the values for the TGI in [8] and in [9] were 36 µM and 45.4 µM, respectively.

With `CC(=O)Nc1ccc2c(c1)[nH]c(=O)c1cc(Cl)ccc12`, the TGI is greater than 100 µM in assay [1]; greater than 100 µM in [2]; 8.53 µM in [3]; greater than 100 µM in assay [4]; greater than 100 µM in [6]; 46.7 µM in assay [7]. Moreover, the TGI in assay [8] and in assay [9] was greater than 100 µM in each case.

`CCOC(=O)C(=O)Nc1nc2ccc(OC)cc2s1`: the TGI in assay [1], in [10], in [2], in [3], in [4] and in assay [6] was greater than 100 µM in each case. Moreover, the TGI in assay [7], in assay [8] and in assay [9] was greater than 100 µM each time.

Consider `Cc1cn([C@H]2CN(O)C[C@@H](CO)O2)c(=O)[nH]c1=O`, for which the TGI in assay [1], in assay [10], in assay [2], in [3], in [4] and in assay [5] was greater than 100 µM each time. In assay [8], this molecule came in with a TGI greater than 100 µM.
